Patent US20140335179A1, “[…] OF ATORVASTATIN HEMICALCIUM” (DSM SINOCHEM PHARMACEUTICALS NETHERLANDS B.V., priority 2011, published 2014)
Several values for one entry are separate records, joined by “and”; a condition that tells them apart may be missing. Equal values may be shown once.

Columns and labels:
[1] = Determination of intrinsic dissolution rate (IDR), stationary disc method, USP 24 apparatus; assay type: physicochemical; settings: 37°C, 100 rpm, hemi calcium salt; for IDR, mean value: 50 mM sodium dihydrogen phosphate buffer pH 6.8 with 2% w/v sodium lauryl sulphate
Description: IDR of crystalline and amorphous atorvastatin hemi-calcium samples was performed by the stationary disc method using USP 24 apparatus. The discs were prepared by compacting 100 mg of powder at 800 psi pressure in a hydraulic press (Hydraulic Unit Model 3912, Carver Inc., WI) with a dwell time of 15 sec, in 8 mm punch die set (surface area 0.5 cm^2). The dissolution studies were performed in 500 ml of 50 mM sodium dihydrogen phosphate buffer (pH 6.8) containing 2% w/v sodium lauryl sulphate maintained at a temperature of 37±0.5° C. and a rotational speed of 100 rpm. Samples were withdrawn at regular intervals, replaced with dissolution medium, and analyzed by UV spectrophotometry at 242 nm up to 60 minutes.

[2] = Specific surface area determination by nitrogen gas sorption (BET); assay type: physicochemical; settings: individual samples, hemi calcium salt
Description: Specific surface area of the samples was determined using nitrogen gas sorption (Smartsorb, Smart Instruments, Mumbai, India). Prior to measurements, weighed samples were regenerated by degassing to remove moisture and contamination. The regenerated sample was dipped in liquid nitrogen and the quantity of the adsorbed gas was measured using thermal conductivity detector and then integrated using electronic circuit in terms of counts. The instrument was calibrated by injecting known quantity of nitrogen. The measured parameters were then used to calculate surface area of the sample by employing the adsorption theories of Brunauer, Emmett and Teller (BET).

[3] = mean value of 35 separate batches
Description: • Instrument: The PSD was determined using a Malvern Mastersizer 2000 equipped with hydro 2000S(A), flow cell, Fourier lenses and a multi-element detector • Data handling system: Malvern Mastersizer 2000 version 5.21 • Technique used: Wet method • Optical parameters: Optical presentation comprising of: • Particle RI: 1.5 • Absorption: 0 • Dispersant RI: 1.375 or 1.4 • Analysis Model: General purpose • Sample measurement snaps: 5000 • Background meas. snaps: 5000 • No. of measurement cycles: 5 • Delay between measurements: 5 sec • Preparation of sample solution: About 25 mg of the sample was weighed in a beaker and about 20 mL of dispersion medium was added with constant stirring and sonification for 30 sec resulting in a uniform dispersion. After sonification the measurement was performed after the obscure value was stabilized between 10-20% • Procedure: • a. The flow cell was assembled to the instrument • b. Dispersion medium poured to Hydro 2000S(A) unit • c. Stirrer speed was set at 2200 rpm • d. Instrument was aligned after feeding the required parameters • e. Background was measured • f. Sample was analyzed by recording five measurements for each sample preparation and the mean RSD values were collected at D(v, 0.1), D(v, 0.5) and D(v, 0.9)

Row | SMILES | IDR, mean value [1] | IDR values of three samples ([1]; three different micronized samples of the Example, pH 6.8 buffer with 2% SLS) | surface area [2] | PSD d10 [3] | PSD d50 [3] | PSD d90 [3]
1 | CC(C)c1c(C(=O)Nc2ccccc2)c(-c2ccccc2)c(-c2ccc(F)cc2)n1CC[C@@H](O)C[C@@H](O)CC(=O)O.CC(C)c1c(C(=O)Nc2ccccc2)c(-c2ccccc2)c(-c2ccc(F)cc2)n1CC[C@@H](O)C[C@@H](O)CC(=O)O.CC(C)c1c(C(=O)Nc2ccccc2)c(-c2ccccc2)c(-c2ccc(F)cc2)n1CC[C@@H](O)C[C@@H](O)CC(=O)[O-].CC(C)c1c(C(=O)Nc2ccccc2)c(-c2ccccc2)c(-c2ccc(F)cc2)n1CC[C@@H](O)C[C@@H](O)CC(=O)[O-].[Ca+2] (relative stereo) [amorphous atorvastatin, [R-(R*,R*)]-2-(4-fluorophenyl)-β,δ-dihydroxy-5-(1-methylethyl)-3-phenyl-4-[(phenylamino)carbonyl]-1H-pyrrole-1-heptanoic acid hemi calcium salt, reference compound] | 0.281 mg/cm^2/min | – | – | – | – | –
2 | CC(C)c1c(C(=O)Nc2ccccc2)c(-c2ccccc2)c(-c2ccc(F)cc2)n1CC[C@@H](O)C[C@@H](O)CC(=O)O.CC(C)c1c(C(=O)Nc2ccccc2)c(-c2ccccc2)c(-c2ccc(F)cc2)n1CC[C@@H](O)C[C@@H](O)CC(=O)O.CC(C)c1c(C(=O)Nc2ccccc2)c(-c2ccccc2)c(-c2ccc(F)cc2)n1CC[C@@H](O)C[C@@H](O)CC(=O)[O-].CC(C)c1c(C(=O)Nc2ccccc2)c(-c2ccccc2)c(-c2ccc(F)cc2)n1CC[C@@H](O)C[C@@H](O)CC(=O)[O-].[Ca+2] (relative stereo) [crystalline atorvastatin hemi-calcium having a well-defined ] [[R-(R*,R*)]-2-(4-fluorophenyl)-β,δ-dihydroxy-5-(1-methylethyl)-3-phenyl-4-[(phenylamino)carbonyl]-1H-pyrrole-1-heptanoic acid hemi calcium salt] | 0.132 mg/cm^2/min | 0.146±0.013 mg/cm^2/min and 0.130±0.017 mg/cm^2/min and 0.109±0.006 mg/cm^2/min | 8.550±0.051 m^2/g and 8.384±0.303 m^2/g and 8.684±0.216 m^2/g | 3 μm | 6 μm | 12 μm
